Laboratory results reported in patent US12404244B2, “Pan-KIT kinase inhibitor having quinoline structure and application thereof” (Tarapeutics Science Inc., priority 2018, dated 2025).

Tests used:
TEL-KIT/T670I-BaF3 = assay: Proliferation of TEL-KIT/T670I-BaF3 cells (CCK-8); assay type: cell-based, mouse; conditions: Mus musculus; 72 hours, CCK-8; read-out: GI50 TEL-KIT/T670I-BaF3
Text: (§1) Compounds as provided herein were further evaluated for their inhibitory effects on proliferation of cancer cells by testing their effects on growth of cancer cells. In this example the following cells were used: primary mouse B cells BaF3 (purchased from ATCC), GIST-T1 cells of the human gastrointestinal stromal tumor cell line (expressing wild-type KIT gene) (purchased from Cosmo Bio Co., Ltd. (Japan)). The present lab further constructed and used the following: mouse Tel-Kit-BaF3 (stably expressing KIT wild-type kinase), mouse Tel-Kit/T670I-BaF3 (stably expressing KIT T670I mutant kinase), mouse Tel-Kit/V559A-BaF3 (stably expressing KIT V559A mutant kinase), mouse Tel-Kit/V559D-BaF3 (stably expressing KIT V559D mutant kinase), mouse Tel-Kit/V559G-BaF3 (stably expressing KIT V559G mutant kinase), mouse Tel-Kit/V560D-BaF3 (stably expressing KIT V560D mutant kinase), mouse Tel-Kit/L576P-BaF3 (stably expressing KIT L576P mutant kinase), mouse Tel-Kit/V654A-BaF3 (stably expressing KIT V654A mutant kinase), mouse Tel-Kit/V654A/V559D-BaF3 (stably expressing KIT V654A V559D mutant kinase), mouse Tel-Kit/T670E-BaF3 (stably expressing KIT T670E mutant kinase), mouse Tel-Kit/T670I/V559D-BaF3 (stably expressing KIT T670I V559D mutant kinase), mouse Tel-Kit/S709F-BaF3 (stably expressing KIT S709F mutant kinase), mouse Tel-Kit/D816E-BaF3 (stably expressing KIT D816E mutant kinase), mouse Tel-Kit/D816H-BaF3 (stably expressing KIT D816H mutant kinase), mouse Tel-Kit/D820E-BaF3 (stably expressing KIT D820E mutant kinase), mouse Tel-Kit/D820G-BaF3 (stably expressing KIT D820G mutant kinase), mouse Tel-Kit/D820Y-BaF3 (stably expressing KIT D820Y mutant kinase), mouse Tel-Kit/N822K-BaF3 (stably expressing KIT N822K mutant kinase), mouse Tel-Kit/Y823D-BaF3 (stably expressing KIT Y823D mutant kinase), mouse Tel-Kit/A829P-BaF3 (stably expressing KIT A829P mutant kinase), GIST-T1-T670I cells of the human gastrointestinal stromal tumor cell line (expressing KIT-T670I mutant gene). The above cell lines were constructed by: amplifying respectively the sequences of human KIT and various mutant kinase regions of KIT via PCR, inserting the fragments respectively into MSCV-Puro vectors having a N-terminal TEL fragment and/or a NPM fragment and/or a TPR fragment (purchased from Clontech), transfecting mouse BaF3 cells with the vectors by means of retrovirus to obtain stably transfected cells, removing the growth factor IL-3, and thereby eventually obtaining cell lines that depend on the transferred protein KIT or various mutants of KIT. The GIST-T1-T670I (expressing C-KIT-T670I mutant gene) cell line was constructed by our laboratory as follows: designing sgRNA that targeted a region around T670 of the KIT gene with CRISPR Design Tool (website: crispr.mit.edu, Zhang Feng Lab), cloning it into pSpCas9(BB)-2A-Puro vector; co-transfecting cells with the resultant vector and a single-stranded oligonucleotide having T670I site mutation that is near to T670, subjecting the resultant to antibiotics screening, followed by dilution, and monocellular culture in a 96-well plate; validating the site T670 of the cells by sequence detection via Sanger sequencing.

TEL-KIT/V559D-BaF3 = assay: Proliferation of TEL-KIT/V559D-BaF3 cells (CCK-8); assay type: cell-based; conditions: Mus musculus; 72 hours, CCK-8; read-out: GI50 TEL-KIT/V559D-BaF3
Text: as §1, with “The GIST-T1-T670I (expressing C-KIT-T670I mutant gene) cell line was constructed by our laboratory as follows: designing sgRNA that targeted a region around T670 of the KIT gene with CRISPR Design Tool (website: crispr.mit.edu, Zhang Feng Lab), cloning it into pSpCas9(BB)-2A-Puro vector; co-transfecting cells with the resultant vector and a single-stranded oligonucleotide having T670I site mutation that is near to T670, subjecting the resultant to antibiotics screening, followed by dilution, and monocellular culture in a 96-well plate; validating the site T670 of the cells by sequence detection via Sanger sequencing.” left out

TEL-KIT/V559G-BaF3 = assay: Proliferation of TEL-KIT/V559G-BaF3 cells (CCK-8); assay type: cell-based; conditions: Mus musculus; 72 hours, CCK-8; read-out: GI50 TEL-KIT/V559G-BaF3
Text: as §1, with “The GIST-T1-T670I (expressing C-KIT-T670I mutant gene) cell line was constructed by our laboratory as follows: designing sgRNA that targeted a region around T670 of the KIT gene with CRISPR Design Tool (website: crispr.mit.edu, Zhang Feng Lab), cloning it into pSpCas9(BB)-2A-Puro vector; co-transfecting cells with the resultant vector and a single-stranded oligonucleotide having T670I site mutation that is near to T670, subjecting the resultant to antibiotics screening, followed by dilution, and monocellular culture in a 96-well plate; validating the site T670 of the cells by sequence detection via Sanger sequencing.” left out

TEL-KIT/V560D-BaF3 = assay: Proliferation of TEL-KIT/V560D-BaF3 cells (CCK-8); assay type: cell-based; conditions: Mus musculus; 72 hours, CCK-8; read-out: GI50 TEL-KIT/V560D-BaF3
Text: as §1, with “The GIST-T1-T670I (expressing C-KIT-T670I mutant gene) cell line was constructed by our laboratory as follows: designing sgRNA that targeted a region around T670 of the KIT gene with CRISPR Design Tool (website: crispr.mit.edu, Zhang Feng Lab), cloning it into pSpCas9(BB)-2A-Puro vector; co-transfecting cells with the resultant vector and a single-stranded oligonucleotide having T670I site mutation that is near to T670, subjecting the resultant to antibiotics screening, followed by dilution, and monocellular culture in a 96-well plate; validating the site T670 of the cells by sequence detection via Sanger sequencing.” left out

TEL-KIT/L576P-BaF3 = assay: Proliferation of TEL-KIT/L576P-BaF3 cells (CCK-8); assay type: cell-based; conditions: Mus musculus; 72 hours, CCK-8; read-out: GI50 TEL-KIT/L576P-BaF3
Text: Compounds as provided herein were further evaluated for their inhibitory effects on proliferation of cancer cells by testing their effects on growth of cancer cells. In this example the following cells were used: primary mouse B cells BaF3 (purchased from ATCC), GIST-T1 cells of the human gastrointestinal stromal tumor cell line (expressing wild-type KIT gene) (purchased from Cosmo Bio Co., Ltd. (Japan)). The present lab further constructed and used the following: mouse Tel-Kit-BaF3 (stably expressing KIT wild-type kinase), mouse Tel-Kit/T670I-BaF3 (stably expressing KIT T670I mutant kinase), mouse Tel-Kit/V559A-BaF3 (stably expressing KIT V559A mutant kinase), mouse Tel-Kit/V559D-BaF3 (stably expressing KIT V559D mutant kinase), mouse Tel-Kit/V559G-BaF3 (stably expressing KIT V559G mutant kinase), mouse Tel-Kit/V560D-BaF3 (stably expressing KIT V560D mutant kinase), mouse Tel-Kit/L576P-BaF3 (stably expressing KIT L576P mutant kinase), mouse Tel-Kit/V654A-BaF3 (stably expressing KIT V654A mutant kinase), mouse Tel-Kit/V654A/V559D-BaF3 (stably expressing KIT V654A V559D mutant kinase), mouse Tel-Kit/T670E-BaF3 (stably expressing KIT T670E mutant kinase), mouse Tel-Kit/T670I/V559D-BaF3 (stably expressing KIT T670I V559D mutant kinase), mouse Tel-Kit/S709F-BaF3 (stably expressing KIT S709F mutant kinase), mouse Tel-Kit/D816E-BaF3 (stably expressing KIT D816E mutant kinase), mouse Tel-Kit/D816H-BaF3 (stably expressing KIT D816H mutant kinase), mouse Tel-Kit/D820E-BaF3 (stably expressing KIT D820E mutant kinase), mouse Tel-Kit/D820G-BaF3 (stably expressing KIT D820G mutant kinase), mouse Tel-Kit/D820Y-BaF3 (stably expressing KIT D820Y mutant kinase), mouse Tel-Kit/N822K-BaF3 (stably expressing KIT N822K mutant kinase), mouse Tel-Kit/Y823D-BaF3 (stably expressing KIT Y823D mutant kinase), mouse Tel-Kit/A829P-BaF3 (stably expressing KIT A829P mutant kinase), GIST-T1-T670I cells of the human gastrointestinal stromal tumor cell line (expressing KIT-T670I mutant gene). […]

TEL-KIT/V654A-BaF3 = assay: Proliferation of TEL-KIT/V654A-BaF3 cells (CCK-8); assay type: cell-based; conditions: Mus musculus; 72 hours, CCK-8; read-out: GI50 TEL-KIT/V654A-BaF3
Text: as §1, with “The GIST-T1-T670I (expressing C-KIT-T670I mutant gene) cell line was constructed by our laboratory as follows: designing sgRNA that targeted a region around T670 of the KIT gene with CRISPR Design Tool (website: crispr.mit.edu, Zhang Feng Lab), cloning it into pSpCas9(BB)-2A-Puro vector; co-transfecting cells with the resultant vector and a single-stranded oligonucleotide having T670I site mutation that is near to T670, subjecting the resultant to antibiotics screening, followed by dilution, and monocellular culture in a 96-well plate; validating the site T670 of the cells by sequence detection via Sanger sequencing.” left out

TEL-KIT/T670E-BaF3 = assay: Proliferation of TEL-KIT/T670E-BaF3 cells (CCK-8); assay type: cell-based; conditions: Mus musculus; 72 hours, CCK-8; read-out: GI50 TEL-KIT/T670E-BaF3
Text: as §1, with “The GIST-T1-T670I (expressing C-KIT-T670I mutant gene) cell line was constructed by our laboratory as follows: designing sgRNA that targeted a region around T670 of the KIT gene with CRISPR Design Tool (website: crispr.mit.edu, Zhang Feng Lab), cloning it into pSpCas9(BB)-2A-Puro vector; co-transfecting cells with the resultant vector and a single-stranded oligonucleotide having T670I site mutation that is near to T670, subjecting the resultant to antibiotics screening, followed by dilution, and monocellular culture in a 96-well plate; validating the site T670 of the cells by sequence detection via Sanger sequencing.” left out

`CCN(CC)CCNC(=O)c1c(C)[nH]c(/C=C2\C(=O)Nc3ccc(F)cc32)c1C` [Sunitinib, reference compound] gave a GI50 (TEL-KIT/T670I-BaF3) of 21 nM, a GI50 (TEL-KIT/V559D-BaF3) of 1 nM and a GI50 (TEL-KIT/V559G-BaF3) of 4 nM. It also gave a GI50 (TEL-KIT/V560D-BaF3) of 35 nM, a GI50 (TEL-KIT/L576P-BaF3) of 6 nM and a GI50 (TEL-KIT/V654A-BaF3) of 5 nM. The GI50 (TEL-KIT/T670E-BaF3) was 89 nM.
